Test results as given in patent publication US20230116972A1, “CD38 MODULATORS AND METHODS OF USE THEREOF” (Cytokinetics, Inc., priority 2021, published 2023).

Key:
[1] = molecular target: T1, endogenous CD38 in HL60 cells (Homo sapiens, UniProt P28907); assay: cellular CD38 assay in HL60 cells (cellular NAD levels); format: cell-based; conditions: all-trans retinoic acid, 24 hours, read-out: hCD38 HL60 ATRA NAD Cell Diaphorase IC50
T1 construct: endogenous in cells; host or cells: HL60 (leukemic cells, treated with all-trans retinoic acid)
T1 sequence (P28907 1-300): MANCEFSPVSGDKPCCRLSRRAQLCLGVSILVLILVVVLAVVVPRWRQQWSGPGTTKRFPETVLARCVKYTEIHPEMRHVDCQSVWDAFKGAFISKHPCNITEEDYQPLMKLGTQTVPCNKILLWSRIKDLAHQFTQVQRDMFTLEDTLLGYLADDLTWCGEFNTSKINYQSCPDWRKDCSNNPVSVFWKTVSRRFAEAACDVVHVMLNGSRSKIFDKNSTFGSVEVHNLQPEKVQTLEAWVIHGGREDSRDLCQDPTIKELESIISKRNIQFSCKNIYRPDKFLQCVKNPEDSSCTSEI
Summary of the method: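 HL60 cells (20000/well) were treated with compound in DMSO for 24 h. Cellular NAD was then measured by an enzymatic cycling mix (alcohol dehydrogenase, diaphorase, 40 uM resazurin, 10 uM FMN, 3% ethanol, Triton X-100, pH 8.4).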

human CD38 = molecular target: T2, human CD38 (Homo sapiens, UniProt P28907); assay: human recombinant CD38 enzyme assay (hydrolysis of NAD+); format: biochemical; conditions: human recombinant CD38, 0.4 nM enzyme, 62.5 μM NAD+; read-out: hCD38 BioChem IC50
T2 sequence (P28907 1-300): T1 sequence (P28907 1-300)
Summary of the method: (§1)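 Cell-free recombinant enzyme, NAD+ substrate, 60 min at RT. Stop/detect: ethanol/ADH plus semicarbazide and a CD38 inhibitor (15 min), then NaOH, then resazurin/diaphorase (15 min). Remaining NAD+ read as resorufin fluorescence, Ex/Em 540/590 nm. Inhibition fitted from dose responses.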

mouse CD38 = molecular target: T3, mouse CD38 (Mus musculus, UniProt P56528); assay: mouse recombinant CD38 enzyme assay (hydrolysis of NAD+); format: biochemical; conditions: read-out: mCD38 BioChem IC50
T3 sequence (P56528 1-304): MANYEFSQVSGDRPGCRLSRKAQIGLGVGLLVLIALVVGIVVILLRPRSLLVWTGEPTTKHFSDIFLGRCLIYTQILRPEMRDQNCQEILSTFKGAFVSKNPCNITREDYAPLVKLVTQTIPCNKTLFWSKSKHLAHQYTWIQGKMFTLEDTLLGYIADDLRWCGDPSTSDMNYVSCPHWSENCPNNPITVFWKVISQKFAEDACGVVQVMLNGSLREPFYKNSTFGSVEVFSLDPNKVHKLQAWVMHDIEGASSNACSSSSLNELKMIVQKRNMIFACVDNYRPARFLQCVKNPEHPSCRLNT
Summary of the method: as §1

Compound	IC50 [1] [nM]	IC50 (human CD38) [nM]	IC50 (mouse CD38) [nM]
COc1ncc(-c2cncn2C)nc1C(=O)N[C@H]1CC[C@H](OC)CC1 [Compound 303, 3-methoxy-N-((1r,4r)-4-methoxycyclohexyl)-6-(1-methyl-1H-imidazol-5-yl)pyrazine-2-carboxamide]	10400	296	62.4
O=C(N[C@H]1CC[C@H](OC(F)(F)F)CC1)c1nccc(-n2ccnc2)n1 [Compound 308, 4-(1H-imidazol-1-yl)-N-((1r,4r)-4-(trifluoromethoxy)cyclohexyl)pyrimidine-2-carboxamide]	6270	125	94.3
Cn1cncc1-c1nc(C(=O)N[C@H]2CC[C@H](OC(F)F)CC2)cc(C2(C)COC2)n1 [Compound 311, N-((1r,4r)-4-(difluoromethoxy)cyclohexyl)-2-(1-methyl-1H-imidazol-5-yl)-6-(3-methyloxetan-3-yl)pyrimidine-4-carboxamide]	2150	13.5	3.8
Cn1cncc1-c1ccnc(C(=O)N[C@H]2CC[C@H](OCc3ccccc3)CC2)n1 [Compound 312, N-((1r,4r)-4-(benzyloxy)cyclohexyl)-4-(1-methyl-1H-imidazol-5-yl)pyrimidine-2-carboxamide]	2790	26.5	10.2
Cn1cncc1-c1cnc(N)c(C(=O)Nc2ccc(C(F)(F)F)nc2)n1 [Compound 314, 3-amino-6-(1-methyl-1H-imidazol-5-yl)-N-(6-(trifluoromethyl)pyridin-3-yl)pyrazine-2-carboxamide]	1370	8.9	7.5
CO[C@H]1CC[C@H](NC(=O)c2cc([C@H]3CC[C@@H](OC)CC3)nc(-c3cncn3C)n2)CC1 [Compound 315, N-((1r,4R)-4-methoxycyclohexyl)-6-((1s,4S)-4-methoxycyclohexyl)-2-(1-methyl-1H-imidazol-5-yl)pyrimidine-4-carboxamide]	2280	13.7	1.8
CO[C@H]1CC[C@H](NC(=O)c2cc([C@H]3CC[C@H](OC)CC3)nc(-c3cncn3C)n2)CC1 [Compound 316, N,6-bis((1r,4R)-4-methoxycyclohexyl)-2-(1-methyl-1H-imidazol-5-yl)pyrimidine-4-carboxamide]	1470	15	2
CO[C@H]1CC[C@H](NC(=O)c2nc(-c3cncn3C)cnc2N)CC1 [Compound 318, 3-amino-N-((1r,4r)-4-methoxycyclohexyl)-6-(1-methyl-1H-imidazol-5-yl)pyrazine-2-carboxamide]	1920	18.5	13.4
Cn1cncc1-c1ccnc(C(=O)Nc2ccc(OC3CC(F)(F)C3)nc2)n1 [Compound 319]	964	3.6	6

The remaining compounds from weak to strong by IC50 [1], led by results:

IC50 [1] [nM]	IC50 (human CD38) [nM]	IC50 (mouse CD38) [nM]	Compound
1010	4.3	5.8	Cn1cncc1-c1ccnc(C(=O)Nc2ccc(C(C)(C)O)cc2)n1 [Compound 358, N-(4-(2-hydroxypropan-2-yl)phenyl)-4-(1-methyl-1H-imidazol-5-yl)pyrimidine-2-carboxamide]
940	5.7	10.2	CC(C)(O)c1ccc(NC(=O)c2nccc(-n3ccnc3)n2)cc1 [Compound 357, N-(4-(2-hydroxypropan-2-yl)phenyl)-4-(1H-imidazol-1-yl)pyrimidine-2-carboxamide]
933	4.2	1.3	Cn1cncc1-c1nc(C(=O)Nc2ccc(C(F)(F)F)nc2)cc(C2(C)COC2)n1 [Compound 309, 2-(1-methyl-1H-imidazol-5-yl)-6-(3-methyloxetan-3-yl)-N-(6-(trifluoromethyl)pyridin-3-yl)pyrimidine-4-carboxamide]
254	1.5	1	COCCOc1cc(C(=O)Nc2ccc(C(F)F)nc2)nc(-c2cncn2C)n1 [Compound 307, N-(6-(difluoromethyl)pyridin-3-yl)-6-(2-methoxyethoxy)-2-(1-methyl-1H-imidazol-5-yl)pyrimidine-4-carboxamide]
